From US10760110B2, “Antibiotic testing and screening system” (priority 2017, dated 2020)
In brackets after ≈: the same amount, converted by molar mass. Like-named read-outs stand apart in the source and are kept apart here.

Legend:
Settings in all cases: Klebsiella pneumoniae
[1] = test system: K. pneumoniae NVT1001 and its ΔompK35/36 and/or ΔramR mutants; experiment: Etest MIC, OmpK35/36 loss and AcrAB-TolC overexpression (ΔramR) strains (Table 6); type: cell-based, Klebsiella pneumoniae
Outline: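 Ceftazidime and cefotaxime were tested by CLSI broth microdilution on the blaOXA-48 pACYC177 transformant of NVT1001, using CLSI 2017 breakpoints. Parent, porin-deleted (ΔompK35/36) and ΔramR strains were tested by Etest, with values between two-fold dilutions rounded up.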

[2] = test system: K. pneumoniae NVT1001 ΔramRΔompK35/36 mutant and its revertants; experiment: Etest MIC, ΔramRΔompK35/36 mutant and its revertants (Table 7); type: cell-based
[3] = test system: K. pneumoniae NVT1001 strains with carbapenemase plasmids; experiment: Etest MIC of β-lactams, OmpK35/36 loss, ΔramR and/or carbapenemase (Table 9); type: cell-based, Klebsiella pneumoniae
Outline: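 Cloned resistance genes in pACYC177 or pACYC184 were electroporated into K. pneumoniae NVT1001. MICs were determined by Etest and rounded up to the next two-fold value. Ceftazidime and cefotaxime against the blaOXA-48 construct were also tested by CLSI broth microdilution, with breakpoints from CLSI 2017 (cephalothin CLSI 2015, moxifloxacin EUCAST 2017).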

For `C[C@@H](O)[C@H]1C(=O)N2C(C(=O)O)=C(S[C@@H]3CN[C@H](C(=O)Nc4cccc(C(=O)O)c4)C3)[C@H](C)[C@H]12` [Ertapenem], the MIC ([1]; WT, NVT1001, read-out: MIC) was 0.015 mg/L (≈ 0.0315 µM), the MIC ([1]; Δ35, ΔompK35 mutant) was 0.03 mg/L (≈ 0.0631 µM) and the MIC ([1]; Δ35/36, ΔompK35/36 mutant) was 2 mg/L (≈ 4.21 µM). For the same molecule, the MIC ([1]; Δ36, ΔompK36 mutant) was 0.03 mg/L (≈ 0.0631 µM), the MIC ([1]; ΔramR mutant) was 0.125 mg/L (≈ 0.263 µM) and the MIC ([1]; ΔramRΔ35, ΔramRΔompK35 mutant) was 0.125 mg/L (≈ 0.263 µM). The MIC ([1]; ΔramRΔ35/36, ΔramRΔompK35/36 mutant) was 4 mg/L (≈ 8.41 µM), the MIC ([1]; ΔramRΔ36, ΔramRΔompK36 mutant) was 4 mg/L (≈ 8.41 µM) and the MIC ([2]; ΔramRΔompK35/36::ompK35/36 revertant) was 0.125 mg/L. The MIC ([2]; ΔramRΔompK35/36::ompK35 revertant) was 4 mg/L, the MIC ([2]; ΔramRΔompK35/36::ompK36 revertant) was 0.125 mg/L and the MIC ([2]; ΔramRΔompK35/36::ramR revertant) was 1 mg/L. The MIC ([2]; ΔramRΔompK35/36::ramR::ompK35/36 revertant) was 0.015 mg/L, the MIC ([2]; ΔramRΔompK35/36::ramR::ompK35 revertant) was 0.03 mg/L and the MIC ([2]; ΔramRΔompK35/36::ramR::ompK36 revertant) was 0.03 mg/L. For the same molecule, the MIC ([2]; ΔramRΔompK35/36 mutant) was 4 mg/L, the MIC ([3]; IMP-8 on pACYC177, WT (NVT1001), read-out: MIC) was 2 mg/L and the MIC ([3]; IMP-8 on pACYC177, Δ35 (ΔompK35 mutant)) was 4 mg/L. For the same molecule, the MIC ([3]; IMP-8 on pACYC177, Δ35/36 (ΔompK35/36 mutant)) was greater than 32 mg/L, the MIC ([3]; IMP-8 on pACYC177, Δ36 (ΔompK36 mutant)) was 2 mg/L and the MIC ([3]; IMP-8 on pACYC177, ΔramR mutant) was 4 mg/L. The MIC ([3]; IMP-8 on pACYC177, ΔramRΔ35 (ΔramRΔompK35 mutant)) was 4 mg/L, the MIC ([3]; IMP-8 on pACYC177, ΔramRΔ35/36 (ΔramRΔompK35/36 mutant)) was greater than 32 mg/L and the MIC ([3]; IMP-8 on pACYC177, ΔramRΔ36 (ΔramRΔompK36 mutant)) was greater than 32 mg/L. The MIC ([3]; KPC-2 on pACYC177, WT (NVT1001), read-out: MIC) was 32 mg/L, the MIC ([3]; KPC-2 on pACYC177, Δ35 (ΔompK35 mutant)) was 32 mg/L and the MIC ([3]; KPC-2 on pACYC177, Δ35/36 (ΔompK35/36 mutant)) was greater than 32 mg/L. The MIC ([3]; KPC-2 on pACYC177, Δ36 (ΔompK36 mutant)) was 32 mg/L, the MIC ([3]; KPC-2 on pACYC177, ΔramR mutant) was greater than 32 mg/L and the MIC ([3]; KPC-2 on pACYC177, ΔramRΔ35 (ΔramRΔompK35 mutant)) was greater than 32 mg/L. For the same molecule, the MIC ([3]; KPC-2 on pACYC177, ΔramRΔ35/36 (ΔramRΔompK35/36 mutant)) was greater than 32 mg/L, the MIC ([3]; KPC-2 on pACYC177, ΔramRΔ36 (ΔramRΔompK36 mutant)) was greater than 32 mg/L and the MIC ([3]; KPC-3 on pACYC177, WT (NVT1001), read-out: MIC) was 32 mg/L. The MIC ([3]; KPC-3 on pACYC177, Δ35 (ΔompK35 mutant)) was 32 mg/L, the MIC ([3]; KPC-3 on pACYC177, Δ35/36 (ΔompK35/36 mutant)) was greater than 32 mg/L and the MIC ([3]; KPC-3 on pACYC177, Δ36 (ΔompK36 mutant)) was 32 mg/L. It also gave an MIC ([3]; KPC-3 on pACYC177, ΔramR mutant) of 32 mg/L, an MIC ([3]; KPC-3 on pACYC177, ΔramRΔ35 (ΔramRΔompK35 mutant)) of 32 mg/L and an MIC ([3]; KPC-3 on pACYC177, ΔramRΔ35/36 (ΔramRΔompK35/36 mutant)) greater than 32 mg/L. It also gave an MIC ([3]; KPC-3 on pACYC177, ΔramRΔ36 (ΔramRΔompK36 mutant)) greater than 32 mg/L, an MIC ([3]; NDM-1 on pACYC177, WT (NVT1001), read-out: MIC) of 32 mg/L and an MIC ([3]; NDM-1 on pACYC177, Δ35 (ΔompK35 mutant)) greater than 32 mg/L. For the same molecule, the MIC ([3]; NDM-1 on pACYC177, Δ35/36 (ΔompK35/36 mutant)) was greater than 32 mg/L, the MIC ([3]; NDM-1 on pACYC177, Δ36 (ΔompK36 mutant)) was greater than 32 mg/L and the MIC ([3]; NDM-1 on pACYC177, ΔramR mutant) was greater than 32 mg/L. For the same molecule, the MIC ([3]; NDM-1 on pACYC177, ΔramRΔ35 (ΔramRΔompK35 mutant)) was greater than 32 mg/L, the MIC ([3]; NDM-1 on pACYC177, ΔramRΔ35/36 (ΔramRΔompK35/36 mutant)) was greater than 32 mg/L and the MIC ([3]; NDM-1 on pACYC177, ΔramRΔ36 (ΔramRΔompK36 mutant)) was greater than 32 mg/L. The MIC ([3]; OXA-48 on pACYC177, WT (NVT1001), read-out: MIC) was 4 mg/L, the MIC ([3]; OXA-48 on pACYC177, Δ35 (ΔompK35 mutant)) was 8 mg/L and the MIC ([3]; OXA-48 on pACYC177, Δ35/36 (ΔompK35/36 mutant)) was greater than 32 mg/L. It also gave an MIC ([3]; OXA-48 on pACYC177, Δ36 (ΔompK36 mutant)) of 8 mg/L, an MIC ([3]; OXA-48 on pACYC177, ΔramR mutant) of 8 mg/L and an MIC ([3]; OXA-48 on pACYC177, ΔramRΔ35 (ΔramRΔompK35 mutant)) of 8 mg/L. For the same molecule, the MIC ([3]; OXA-48 on pACYC177, ΔramRΔ35/36 (ΔramRΔompK35/36 mutant)) was greater than 32 mg/L, the MIC ([3]; OXA-48 on pACYC177, ΔramRΔ36 (ΔramRΔompK36 mutant)) was greater than 32 mg/L and the MIC ([3]; VIM-1 on pACYC177, WT (NVT1001), read-out: MIC) was 2 mg/L. It also gave an MIC ([3]; VIM-1 on pACYC177, Δ35 (ΔompK35 mutant)) of 4 mg/L, an MIC ([3]; VIM-1 on pACYC177, Δ35/36 (ΔompK35/36 mutant)) greater than 32 mg/L and an MIC ([3]; VIM-1 on pACYC177, Δ36 (ΔompK36 mutant)) of 2 mg/L. The MIC ([3]; VIM-1 on pACYC177, ΔramR mutant) was 4 mg/L, the MIC ([3]; VIM-1 on pACYC177, ΔramRΔ35 (ΔramRΔompK35 mutant)) was 4 mg/L and the MIC ([3]; VIM-1 on pACYC177, ΔramRΔ35/36 (ΔramRΔompK35/36 mutant)) was greater than 32 mg/L. It also gave an MIC ([3]; VIM-1 on pACYC177, ΔramRΔ36 (ΔramRΔompK36 mutant)) greater than 32 mg/L, an MIC ([3]; no supplemental plasmid, WT (NVT1001), read-out: MIC) of 0.015 mg/L and an MIC ([3]; no supplemental plasmid, Δ35 (ΔompK35 mutant)) of 0.03 mg/L. The MIC ([3]; no supplemental plasmid, Δ35/36 (ΔompK35/36 mutant)) was 2 mg/L, the MIC ([3]; no supplemental plasmid, Δ36 (ΔompK36 mutant)) was 0.03 mg/L and the MIC ([3]; no supplemental plasmid, ΔramR mutant) was 0.125 mg/L. The MIC ([3]; no supplemental plasmid, ΔramRΔ35 (ΔramRΔompK35 mutant)) was 0.125 mg/L, the MIC ([3]; no supplemental plasmid, ΔramRΔ35/36 (ΔramRΔompK35/36 mutant)) was 4 mg/L and the MIC ([3]; no supplemental plasmid, ΔramRΔ36 (ΔramRΔompK36 mutant)) was 4 mg/L.
